The NIST ThermoML archive (doi:10.1021/je049612f)

Conditions: Gas, Vibrating wire viscometry

FS(F)(F)(F)(F)F [sulfur hexafluoride]
Conditions	viscosity [mPa·s]
300 K, 26.36 kPa	0.01529
300 K, 50.94 kPa	0.01531
300 K, 73.62 kPa	0.01532
300 K, 105.89 kPa	0.01532
300 K, 125.7 kPa	0.01533
300 K, 152.62 kPa	0.01533
300 K, 177.62 kPa	0.01533
300 K, 195.25 kPa	0.01534
300 K, 227.52 kPa	0.01534
300 K, 251.51 kPa	0.01535
300 K, 278.58 kPa	0.01535
300 K, 301.45 kPa	0.01535
300 K, 327.3 kPa	0.01536
300 K, 353.41 kPa	0.01536
300 K, 378.55 kPa	0.01537
300 K, 401.57 kPa	0.01537
300 K, 425.72 kPa	0.01538
300 K, 444.52 kPa	0.01538
300 K, 471.71 kPa	0.01539
300 K, 491.53 kPa	0.0154
300 K, 538.31 kPa	0.01541
300 K, 565.24 kPa	0.01542
300 K, 597.98 kPa	0.01543
300 K, 634.58 kPa	0.01544
300 K, 665.1 kPa	0.01545
300 K, 700.96 kPa	0.01546
300 K, 731.45 kPa	0.01547
300 K, 763.98 kPa	0.01548
300 K, 800.2 kPa	0.01549
300 K, 835.89 kPa	0.01551
300 K, 869.95 kPa	0.01553
300 K, 898.41 kPa	0.01554
300 K, 930.75 kPa	0.01556
300 K, 968.74 kPa	0.01558
300 K, 997.76 kPa	0.01559
300 K, 1036.4 kPa	0.01561
300 K, 1090.2 kPa	0.01565
300 K, 1140.1 kPa	0.01568
300 K, 1181.5 kPa	0.0157
300 K, 1223.6 kPa	0.01574
300 K, 1280.6 kPa	0.01578
300 K, 1333.3 kPa	0.01582
300 K, 1380.9 kPa	0.01586
300 K, 1417.9 kPa	0.01589
300 K, 1493.3 kPa	0.01596
300 K, 1537.7 kPa	0.016
300 K, 1594.6 kPa	0.01606
300 K, 1637.3 kPa	0.01611
300 K, 1680.6 kPa	0.01616
300 K, 1735.3 kPa	0.01622
300 K, 1784.4 kPa	0.01629
300 K, 1826.5 kPa	0.01635
300 K, 1865.1 kPa	0.01641
300 K, 1927.3 kPa	0.0165
300 K, 1980 kPa	0.01659
300 K, 2039.3 kPa	0.0167
316 K, 112.75 kPa	0.01605
316 K, 143.54 kPa	0.01605
316 K, 174.6 kPa	0.01606
316 K, 197.59 kPa	0.01606
316 K, 218.05 kPa	0.01607
316 K, 245.03 kPa	0.01607
316 K, 262.84 kPa	0.01607
316 K, 287.46 kPa	0.01608
316 K, 307.35 kPa	0.01608
316 K, 332.06 kPa	0.01609
316 K, 357.7 kPa	0.0161
316 K, 383.76 kPa	0.0161
316 K, 402.43 kPa	0.01611
316 K, 428.01 kPa	0.01611
316 K, 468.39 kPa	0.01613
316 K, 490.91 kPa	0.01613
316 K, 519.48 kPa	0.01614
316 K, 548.34 kPa	0.01615
316 K, 585.01 kPa	0.01616
316 K, 614.48 kPa	0.01617
316 K, 650.85 kPa	0.01618
316 K, 685.07 kPa	0.0162
316 K, 712.63 kPa	0.0162
316 K, 749.05 kPa	0.01622
316 K, 780.4 kPa	0.01623
316 K, 810.74 kPa	0.01624
316 K, 843.2 kPa	0.01626
316 K, 882.81 kPa	0.01628
316 K, 913.9 kPa	0.01629
316 K, 955.92 kPa	0.01631
316 K, 994.72 kPa	0.01634
316 K, 1031.1 kPa	0.01635
316 K, 1084.1 kPa	0.01638
316 K, 1120.4 kPa	0.01641
316 K, 1178.3 kPa	0.01644
316 K, 1215.2 kPa	0.01646
316 K, 1257.3 kPa	0.0165
316 K, 1314.3 kPa	0.01654
316 K, 1374.4 kPa	0.01658
316 K, 1422.9 kPa	0.01662
316 K, 1465.6 kPa	0.01665
316 K, 1530.4 kPa	0.01671
316 K, 1572.7 kPa	0.01674
316 K, 1609.8 kPa	0.01678
316 K, 1667.2 kPa	0.01684
316 K, 1724.2 kPa	0.01689
316 K, 1772.5 kPa	0.01694
316 K, 1821.1 kPa	0.017
316 K, 1860.3 kPa	0.01704
316 K, 1922.7 kPa	0.01711
316 K, 1988.5 kPa	0.0172
316 K, 2021.6 kPa	0.01725
316 K, 2087.4 kPa	0.01733
316 K, 2155.2 kPa	0.01744
316 K, 2223.8 kPa	0.01755
316 K, 2273.2 kPa	0.01763
316 K, 2319.1 kPa	0.01771
316 K, 2375.8 kPa	0.01781
316 K, 2448.5 kPa	0.01796
316 K, 2510 kPa	0.01809
316 K, 2587.2 kPa	0.01826
316 K, 2658.2 kPa	0.01844
316 K, 2724.3 kPa	0.01862
316 K, 2792.7 kPa	0.01883
316 K, 2860.9 kPa	0.01906
316 K, 2916.5 kPa	0.01925
316 K, 2981.1 kPa	0.0195
316 K, 3007.9 kPa	0.01963
316 K, 3070 kPa	0.01992
316 K, 3135.2 kPa	0.02025
321 K, 77.46 kPa	0.01627
321 K, 97.02 kPa	0.01627
321 K, 114.16 kPa	0.01627
321 K, 146.57 kPa	0.01628
321 K, 169.96 kPa	0.01629
321 K, 205.62 kPa	0.01629
321 K, 239.58 kPa	0.0163
321 K, 264.1 kPa	0.0163
321 K, 293.39 kPa	0.01631
321 K, 339.65 kPa	0.01632
321 K, 374.89 kPa	0.01633
321 K, 400.93 kPa	0.01634
321 K, 428.98 kPa	0.01634
321 K, 457.31 kPa	0.01635
321 K, 488.99 kPa	0.01636
321 K, 523.86 kPa	0.01637
321 K, 563.16 kPa	0.01638
321 K, 592.18 kPa	0.01639
321 K, 633.22 kPa	0.01641
321 K, 681.18 kPa	0.01643
321 K, 732.46 kPa	0.01644
321 K, 790.88 kPa	0.01647
321 K, 823.55 kPa	0.01648
321 K, 857.52 kPa	0.0165
321 K, 896.2 kPa	0.01652
321 K, 934.23 kPa	0.01654
321 K, 969 kPa	0.01655
321 K, 1031.4 kPa	0.01658
321 K, 1089.4 kPa	0.01662
321 K, 1125 kPa	0.01664
321 K, 1178.7 kPa	0.01667
321 K, 1223.2 kPa	0.0167
321 K, 1282.4 kPa	0.01674
321 K, 1340 kPa	0.01678
321 K, 1386.2 kPa	0.01682
321 K, 1431.8 kPa	0.01686
321 K, 1483.3 kPa	0.01689
321 K, 1538.9 kPa	0.01694
321 K, 1647 kPa	0.01703
321 K, 1693.1 kPa	0.01708
321 K, 1744.5 kPa	0.01713
321 K, 1788.6 kPa	0.01718
321 K, 1847.4 kPa	0.01724
